Results published in publication PMC6270398, “Synthesis and Promising in Vitro Antiproliferative Activity of Sulfones of a 5-Nitrothiazole Series” (Molecules, 2012).

Tests used:
CHO cells = assay: In vitro cytotoxicity evaluation on CHO cell line (MTT method); type: cell-based; settings: for CC50: Cricetulus griseus, 24 h incubation with product, mean ± SD of three independent experiments, read-out: Cancer cell toxicity CHO CC50
Description: (§1) The antiproliferative activity of the synthesized compounds was evaluated against two different cancer cell lines, CHO and HepG2, employing the MTT method and doxorubicin as a reference drug. The cytotoxic activity in vitro was expressed as CC50 (µM), the concentration of compound that inhibits proliferation of cells by 50% as compared to untreated cells.
(§2) CHO and HepG2 cell lines were maintained at 37 °C, 6% CO2, 14% O2, 80% N2, with 90% humidity in RPMI supplemented with 10% fœtal bovine serum, 1% L-glutamine (200 mM) and penicillin (100 U/mL) / streptomycin (100 µg/mL) (complete RPMI medium).
(§3) In vitro cytotoxicity evaluation on CHO and HepG2 cell lines was performed according to the method described by Mosmann with slight modifications. Briefly, 5 × 10^3 cells in 100 µL of culture medium (RPMI + […]) were inoculated into each well of 96-well plates and incubated at 37 °C in a humidified 6% CO2, 14% O2, 80% N2 atmosphere. After 24 h incubation, 100 µL of medium with various product concentrations was added and the plates were incubated from 24 h (CHO) to 72 h (HepG2). Duplicate assays were performed for each sample. At the end of the treatment and incubation, the medium was aspirated from the wells and 10 µL yellow MTT (3-(4,5-dimethyl-2-thiazolyl)-2,5-diphenyl-2H-tetrazolium bromide) solution (5 mg MTT/mL in PBS) was added to each well with 100 µL of medium without fœtal bovine serum. Cells were incubated for 2 h at 37 °C to allow MTT […] by mitochondrial dehydrogenase in the viable cells. After 2 h, the MTT solution was aspirated and DMSO (100 µL) was added to each well to dissolve the resulting blue formazan crystals. Plates were then shaken vigorously (300 rpm) for a few minutes. The absorbance was measured at 570 nm with 630 nm as reference wavelength, using a microplate spectrophotometer. DMSO was used as blank and doxorubicin as positive control.
(§4) Cell viability was calculated as percentage of control (cells incubated without compound). The 50% cytotoxic concentrations (CHO CC50 and HepG2 CC50) were determined by non-linear regression analysis processed on dose-response curves, using the Table Curve software 2D v.5.0. CC50 values represent the mean value calculated from three independent experiments.

HepG2 cells = assay: In vitro cytotoxicity evaluation on HepG2 cell line (MTT method); type: cell-based, human; settings: for CC50: Homo sapiens, 72 h incubation with product, mean ± SD of three independent experiments, read-out: Cancer cell toxicity HepG2 CC50; for CC50 / antiproliferative activity on HepG2 cells (in words): HepG2 cell line, MTT; for antiproliferative effect times higher toward the HepG2 than toward the CHO cell line: ratio CHO CC50 / HepG2 CC50
Description: as §1, §2, §3, §4

Structure (SMILES) | melting point [°C] | CC50 (CHO cells) [µM] | CC50 (HepG2 cells) [µM] | antiproliferative effect times higher toward the HepG2 than toward the CHO cell line (HepG2 cells) [times] | antiproliferative activity on CHO cells (in words) (CHO cells) | antiproliferative activity on HepG2 cells (in words) (HepG2 cells)
Cc1ccc(S(=O)(=O)Cc2nc(C)sc2[N+](=O)[O-])cc1 [2b, 2-Methyl-5-nitro-4-(tosylmethyl)-1,3-thiazole] | 179 | 237 | 7.7 | 31 | – | –
COc1cccc2c1C(=O)c1c(O)c3c(c(O)c1C2=O)C[C@@](O)(C(=O)CO)C[C@@H]3O[C@H]1C[C@H](N)[C@H](O)[C@H](C)O1 [Doxorubicin, reference compound] | – | 0.6 | 0.2 | – | – | –
Cc1nc(CS(=O)(=O)c2ccc(F)cc2)c([N+](=O)[O-])s1 [2e, 4-[(4-Fluorophenylsulfonyl)methyl]-2-methyl-5-nitro-1,3-thiazole] | – | 229 | 19.3 | – | – | –
Cc1nc(CS(=O)(=O)c2ccc(Br)cc2)c([N+](=O)[O-])s1 [2d, 4-[(4-Bromophenylsulfonyl)methyl]-2-methyl-5-nitro-1,3-thiazole] | – | > 500 | 11.7 | 43 | – | –
Cc1nc(CS(=O)(=O)c2ccc(Br)s2)c([N+](=O)[O-])s1 [2k, 4-[(5-Bromothiophen-2-ylsulfonyl)methyl]-2-methyl-5-nitro-1,3-thiazole] | – | 47.3 | 13.8 | – | – | –
Cc1ccc(S(=O)(=O)C(Cl)(Cl)c2nc(C)sc2[N+](=O)[O-])cc1 [3b, 4-[Dichloro(tosyl)methyl]-2-methyl-5-nitro-1,3-thiazole] | – | 1.2 | 1 | – | – | –
Cc1nc(CS(=O)(=O)c2ccc3ccccc3c2)c([N+](=O)[O-])s1 [2l, 2-Methyl-4-[(naphtalen-2-ylsulfonyl)methyl]-5-nitro-1,3-thiazole] | 163 | 106 | 8.5 | – | – | –
COc1ccc(S(=O)(=O)Cc2nc(C)sc2[N+](=O)[O-])cc1 [2h, 4-[(4-Methoxyphenylsulfonyl)methyl]-2-methyl-5-nitro-1,3-thiazole] | – | 137 | 20.6 | – | – | –
CCc1ccc(S(=O)(=O)Cc2nc(C)sc2[N+](=O)[O-])cc1 [2i, 4-[(4-Ethylphenylsulfonyl)methyl]-2-methyl-5-nitro-1,3-thiazole] | – | > 500 | 239 | – | no activity was observed | no activity was observed
Cc1nc(CS(C)(=O)=O)c([N+](=O)[O-])s1 [2j, 2-Methyl-4-(methylsulfonylmethyl)-5-nitro-1,3-thiazole] | 127 | > 250 | > 250 | – | no activity was observed | no activity was observed
Cc1nc(CS(=O)(=O)c2ccccc2)c([N+](=O)[O-])s1 [2a, 2-methyl-5-nitro-4-phenylsulfonylmethyl-1,3-thiazole] | – | 323 | 24.6 | – | – | –
Cc1nc(C(Cl)(Cl)S(=O)(=O)c2ccc(Cl)cc2)c([N+](=O)[O-])s1 [3c, 4-[Dichloro(4-chlorophenylsulfonyl)methyl]-2-methyl-5-nitro-1,3-thiazole] | – | 1.4 | 1.1 | – | – | –
Cc1nc(CS(=O)(=O)c2cccc(F)c2)c([N+](=O)[O-])s1 [2f, 4-[(3-Fluorophenylsulfonyl)methyl]-2-methyl-5-nitro-1,3-thiazole] | 154 | 321 | 23.6 | – | – | –
Cc1nc(CS(=O)(=O)c2cccc(C(F)(F)F)c2)c([N+](=O)[O-])s1 [2g, 2-Methyl-5-nitro-4-{[3-(trifluoromethyl)phenylsulfonyl]methyl}-1,3-thiazole] | 121 | 139 | 25.6 | – | – | –
Cc1nc(CS(=O)(=O)c2ccc(Cl)cc2)c([N+](=O)[O-])s1 [2c, 4-[(4-Chlorophenylsulfonyl)methyl]-2-methyl-5-nitro-1,3-thiazole] | 180 | > 62.5 | 13.4 | – | – | –

The next lines start with results.

melting point [°C] | Structure (SMILES) | CC50 (CHO cells) [µM] | CC50 (HepG2 cells) [µM] | antiproliferative effect times higher toward the HepG2 than toward the CHO cell line (HepG2 cells) [times] | antiproliferative activity on CHO cells (in words) (CHO cells) | antiproliferative activity on HepG2 cells (in words) (HepG2 cells)
165 | Cc1nc(C(Cl)(Cl)S(=O)(=O)c2ccc(Br)cc2)c([N+](=O)[O-])s1 [3d, 4-[(4-Bromophenylsulfonyl)dichloromethyl]-2-methyl-5-nitro-1,3-thiazole] | 1.3 | 1.2 | – | – | –
145 | Cc1nc(C(Cl)(Cl)S(=O)(=O)c2ccc(F)cc2)c([N+](=O)[O-])s1 [3e, 4-[Dichloro(4-fluorophenylsulfonyl)methyl]-2-methyl-5-nitro-1,3-thiazole] | 1.3 | 1.2 | – | – | –
169 | Cc1nc(C(Cl)(Cl)S(=O)(=O)c2ccccc2)c([N+](=O)[O-])s1 [3a, 4-[Dichloro(phenylsulfonyl)methyl]-2-methyl-5-nitro-1,3-thiazole] | 2.5 | 1.2 | – | – | –
